Assays:
[1] = tested on: patients with B cell malignancies (multiple myeloma, indolent and mantle cell lymphoma); experiment: Phase I 3+3 dose escalation: DLT and MTD; type: in vivo, human
[2] = Alvocidib plasma pharmacokinetics; type: in vivo, human; conditions: mean ± SD
[3] = tested on: refractory/relapsed indolent NHL (including follicular, marginal zone and SLL); conditions: cited from earlier work
refractory/relapsed MM = conditions: cited from earlier work
mantle cell lymphoma = conditions: bortezomib alone; cited from earlier work
[4] = Dose Level 1 (n=8 doses): alvocidib 20+20 mg/m^2
[5] = Dose Level 2 (n=6 doses): alvocidib 30+30 mg/m^2
[6] = Dose Level 3 (n=3 doses): alvocidib 30+50 mg/m^2

Row | SMILES | MTD, alvocidib 4 hour infusion ([1]; days 1 and 8, 21 day cycle, after the 30 min bolus, in combination with bortezomib) | MTD, alvocidib 30 min bolus infusion ([1]; days 1 and 8, 21 day cycle, in combination with bortezomib) | CL [2, 4] | K10 [2, 4] | V1 [2, 4] | CL [2, 5] | K10 [2, 5] | V1 [2, 5] | CL [2, 6] | K10 [2, 6] | V1 [2, 6] | V2 [2, 6] | response rates to single agent bortezomib [3] | MTD, bortezomib ([1]; IV push days 1, 4, 8, 11, 21 day cycle, in combination with alvocidib) | responses to single-agent bortezomib (refractory/relapsed MM) | single-agent activity (response rate) (mantle cell lymphoma)
1 | CN1CC[C@H](c2c(O)cc(O)c3c(=O)cc(-c4ccccc4Cl)oc23)[C@H](O)C1 [alvocidib] | 30 mg/m^2 | 30 mg/m^2 | 13,243 ± 2,540 ml/h/m^2 | 0.803 ± 0.237 h⁻¹ | 18,512 ± 8,687 ml/m^2 | 12,825 ± 3,267 ml/h/m^2 | 1.04 ± 0.438 h⁻¹ | 14,888 ± 7,685 ml/m^2 | 18,137 ± 8,097 ml/h/m^2 | 0.569 ± 0.169 h⁻¹ | 31,380 ± 7,368 ml/m^2 | 48,448 ± 23,397 ml/m^2 | – | – | – | –
2 | CC(C)C[C@H](NC(=O)[C@H](Cc1ccccc1)NC(=O)c1cnccn1)B(O)O [bortezomib] | – | – | – | – | – | – | – | – | – | – | – | – | approximately 13.3% | 1.3 mg/m^2 | approximately 35% | approximately 33%

From paper PMC3096752 (Clinical cancer research : an official journal of the …, 2011)
